Measurements: patent publication US20130203823A1, “STABLE TOPICAL COMPOSITIONS FOR 1,2,4-THIADIAZOLE DERIVATIVES” (JANSSEN PHARMACEUTICAL, INC., priority 2009, published 2013)
Values belong to the molecule of their own block, whether it stands above or below them.

Experiments:
[1] = Stability of the compound in the composition on storage, concentration by HPLC versus initial concentration; format: physicochemical
From the text: The compositions of the present invention have desired and improved properties, including the extended shelf-life or stability and the suitable commercial production. As used herein, the terms ‘stable composition’, ‘stable formulation’, ‘composition with extended shelf-life’ or variants thereof refer to the compound of Formula I, II, or III (and most preferably Compounds Ia, IIa, and IIIa) in the composition is stable. The stability or shelf-life of the compound may be determined by measuring the concentration and any degradation product of the compound of Formula I, II or III in the compositions using high performance liquid chromatography (HPLC). As commonly referred in the art, the compound is considered to be stable or being stabilized when the concentration of the compound retains at least about 90% to at least about 110%, preferably at least about 95% to at least about 105%, of the original concentration of the compound.
By way of example, the stability of the compound of Formula I, II, or III is determined using HPLC equipped with a temperature-controlled autosampler, a thermostatic column compartment, and an UV detector at about 326 nm (Agilent 1100, Waters alliance HPLC). A Zorbax C18 column is used for analyzing Compound Ia and a YMC-Pack Hydrosphere C18 column is used for analyzing Compound IIa. A binary linear gradient of mobile phases A and B is used. The mobile phase A may consist of about 0.2% trifluroacetic acid in water and the mobile phase B may consist of about 0.2% trifluroacetic acid in methanol. The gradient conditions are provided below.
The stability of Compound Ia was examined by measuring the concentration of Compound Ia using HPLC. The concentration of the compound in the composition stored at various temperatures for a period of time was compared to the initial concentration of the compound prior to storage.

[2] = In vitro skin permeation study, cadaver skin finite dose technique, Franz diffusion cell; format: in vitro ADME, human
Protocol: The cadaver skin finite dose technique was used for the studies. Split thickness human cadaver trunk skin was obtained from skin bank and stored in a water-impermeable plastic bag at about −70° C. Prior to each experiment, skin was thawed in water bath at about 37° C., then cut into sections large enough to fit on the Franz diffusion cell. The diffusion cells were mounted in a diffusion apparatus and filled with a receptor solution of ethanol/water/formic acid (25/75/0.3), which was stirred at about 600 RPM and maintained at about 32° C. The skin was mounted onto the diffusion cell, where the stratum corneum side faced the donor compartment and the dermal side faced the receiving compartment. About 10 μl per cm^2 of the composition was applied to the skin using a pipette. The dose was spread throughout the skin surface with a Teflon tip of the pipette. After about 4, 8, 12 and 24 hrs, the receptor solution was removed and replaced with fresh receptor solution. An aliquot was taken for analysis. The skin surface was washed with about 0.5 ml of a solvent mixture of methanol/water/formic acid (90/10/0.3). The solvent mixture was filtered and an aliquot was taken for analysis. Subsequently, the dermis and epidermis were separated and Compound IIa was extracted using the solvent mixture. The solvent mixture was filtered and an aliquot was taken for analysis. Samples were analyzed using HPLC.

[3] = aqueous gel formulation B, 0.30% w/w Compound IIa
[4] = aqueous gel formulation B, 0.60% w/w Compound IIa
[5] = aqueous gel formulation B, 1.2% w/w Compound IIa
[6] = cream composition E (as titled), 0.30% w/w Compound IIa
[7] = cream composition E (as titled), 0.60% w/w Compound IIa
[8] = cream composition E (as titled), 1.2% w/w Compound IIa
[9] = cream composition E (as titled), 2.4% w/w Compound IIa

- % of Initial Concentration ([1]; aqueous gel composition B, 0.3% Compound IIa, 12 months, 5° C.): 99.47%
- % of Initial Concentration ([1]; aqueous gel composition B, 0.3% Compound IIa, 12 months, 25° C.): 95.60%
- % of Initial Concentration ([1]; aqueous gel composition B, 0.3% Compound IIa, 24 months, 5° C.): 97.92%
- % of Initial Concentration ([1]; aqueous gel composition B, 0.3% Compound IIa, 24 months, 25° C.): 89.49%
- % of Initial Concentration ([1]; aqueous gel composition B, 0.6% Compound IIa, 12 months, 25° C.): 93.90%
- % of Initial Concentration ([1]; aqueous gel composition B, 0.6% Compound IIa, 24 months, 5° C.): 97.02%
- % of Initial Concentration ([1]; aqueous gel composition B, 0.6% Compound IIa, 24 months, 25° C.): 92.69%
- % of Initial Concentration ([1]; aqueous gel composition B, 1.2% Compound IIa, 12 months, 25° C.): 95.49%
- % of Initial Concentration ([1]; aqueous gel composition B, 1.2% Compound IIa, 24 months, 5° C.): 97.56%
- % of Initial Concentration ([1]; aqueous gel composition B, 1.2% Compound IIa, 24 months, 25° C.): 93.87%
- % of Initial Concentration ([1]; aqueous gel composition B, 1.5% Compound IIa, 12 months, 5° C.): 100.68%
- % of Initial Concentration ([1]; aqueous gel composition B, 1.5% Compound IIa, 12 months, 25° C.): 99.03%
- % of Initial Concentration ([1]; aqueous gel composition B, 2.4% Compound IIa, 12 months, 25° C.): 101.30%
- Stability in the composition (in words) ([1]; aqueous gel composition B, various amounts of Compound IIa, ambient condition): stable at ambient condition
- Time for which the compound was stable ([1]; cream composition C (so in the source), ambient condition): at least 6 months
- Time for which the compound was stable ([1]; cream composition C (so in the source), refrigerated condition): at least 18 months
- % of Initial Concentration ([1]; cream composition D, 1.2% Compound IIa, 6 months, 5° C.): 100.0%
- % of Initial Concentration ([1]; cream composition D, 1.2% Compound IIa, 6 months, 25° C.): 94.1%
- % of Initial Concentration ([1]; cream composition D, 1.2% Compound IIa, 12 months, 5° C.): 98.3%
- % of Initial Concentration ([1]; cream composition D, 1.2% Compound IIa, 18 months, 5° C.): 100.8%
- % of Initial Concentration ([1]; emulsion composition E, 3 months, 5° C.): 101.40%
- % of Initial Concentration ([1]; emulsion composition E, 3 months, 25° C.): 98.01%
- % of Initial Concentration ([1]; emulsion composition E, 6 months, 5° C.): 100.11%
- % of Initial Concentration ([1]; emulsion composition E, 6 months, 25° C.): 95.61%
- % of Initial Concentration ([1]; emulsion composition E, 9 months, 5° C.): 100.20%
- % of Initial Concentration ([1]; emulsion composition E, 13 months, 5° C.): 100.54%
- Time for which the compound was stable ([1]; emulsion composition E, refrigerated condition): at least 13 months
- Total amount permeated into Dermis [2, 3]: 0.004 µg
- Total amount permeated into Epidermis [2, 3]: 0.361 µg
- Total amount permeated into Receptor solution [2, 3]: 0.020 µg
- Total amount permeated into Dermis [2, 4]: 0.007 µg
- Total amount permeated into Epidermis [2, 4]: 0.164 µg
- Total amount permeated into Receptor solution [2, 4]: 0.045 µg
- Total amount permeated into Dermis [2, 5]: 0.007 µg
- Total amount permeated into Epidermis [2, 5]: 0.537 µg
- Total amount permeated into Receptor solution [2, 5]: 0.074 µg
- Total penetration amount in epidermis, dermis and receptor solution versus concentration (in words) ([2]; as the concentration of Compound IIa increased in the formulations): increased
- Total amount permeated into Dermis [2, 6]: 0.003 µg
- Total amount permeated into Epidermis [2, 6]: 0.279 µg
- Total amount permeated into Receptor solution [2, 6]: 0.015 µg
- Total amount permeated into Dermis [2, 7]: 0.015 µg
- Total amount permeated into Epidermis [2, 7]: 0.357 µg
- Total amount permeated into Receptor solution [2, 7]: 0.025 µg
- Total amount permeated into Dermis [2, 8]: 0.014 µg
- Total amount permeated into Epidermis [2, 8]: 0.428 µg
- Total amount permeated into Receptor solution [2, 8]: 0.025 µg
- Total amount permeated into Dermis [2, 9]: 0.028 µg
- Total amount permeated into Epidermis [2, 9]: 0.681 µg
- Total amount permeated into Receptor solution [2, 9]: 0.070 µg
SMILES: COc1ccccc1-c1nc(=Nc2ccccc2)sn1-c1ccccc1OC [Compound IIa, [2-(2-methoxyphenyl)-3-(2-methoxyphenyl)-2H-[1,2,4]-thiadiazol-5-ylidene]-phenylamine]
- Skin penetration (in words) ([2]; aqueous gel formulation B): able to penetrate into epidermis, dermis and receptor solution
- Skin penetration (in words) ([2]; cream composition D): able to penetrate into epidermis, dermis and receptor solution

- Stability in the composition (in words) ([1]; aqueous gel composition A, 0.3% Compound Ia, ambient condition): stable at ambient condition
- Time for which the compound was stable ([1]; emulsion composition F, refrigerated condition): at least 4 weeks
SMILES: COc1ccccc1-c1nc(Nc2ccccc2)s[n+]1-c1ccccc1OC.[Br-] [Compound Ia, 2-(2-methoxyphenyl)-3-(2-methoxyphenyl)-5-phenylamino-[1,2,4]-thiadiazol-2-ium]
